{"source": "paper PMC9344054", "about": "“Studies on Chemical Characterization of Ginkgo Amillaria Oral Solution and Its Drug–Drug Interaction With Piceatannol 3′-O-β-D-Glucopyranoside for Injection” (Frontiers in Pharmacology, 2022)", "origin": "cited, not measured here", "key": {"[1]": {"test_system": "most human UGTs, including UGT1A1, 1A3, 1A4, 1A6, 1A7, 1A8, and 1A9", "design": "method as in Lv et al., 2018", "conditions": "UGT1A1, 1A3, 1A4, 1A6, 1A7, 1A8, 1A9; ref Lv et al., 2018; cited from earlier work"}, "[2]": {"test_system": "breast cancer resistance protein", "design": "method as in An et al., 2011; Palatini and De Martin, 2016", "conditions": "ref An et al., 2011; Palatini and De Martin, 2016; cited from earlier work"}, "[3]": {"test_system": "P-glycoprotein", "design": "method as in An et al., 2011; Palatini and De Martin, 2016", "conditions": "previous studies; ref An et al., 2011; Palatini and De Martin, 2016; cited from earlier work"}, "[4]": {"test_system": "human hepatic UGT1A1", "design": "method as in Cao et al., 2017", "conditions": "in vitro; ref Cao et al., 2017; cited from earlier work"}, "[5]": {"test_system": "human hepatic UGT1A4", "design": "method as in Cao et al., 2017", "conditions": "in vitro; ref Cao et al., 2017; cited from earlier work"}, "[6]": {"design": "method as in Zhao et al., 2006", "conditions": "pretreatment of GBE 100 mg kg−1 for 10 days; ref Zhao et al., 2006; cited from earlier work"}, "[7]": {"test_system": "UGT1A1", "design": "method as in Zhang et al., 2021", "conditions": "ref Zhang et al., 2021; cited from earlier work"}, "[8]": {"test_system": "UGT1A9", "design": "method as in Zhang et al., 2021", "conditions": "ref Zhang et al., 2021; cited from earlier work"}, "[9]": {"test_system": "UGT1A6", "design": "method as in Zhang et al., 2021", "conditions": "ref Zhang et al., 2021; cited from earlier work"}, "[10]": {"test_system": "UGT1A3", "design": "method as in Zhang et al., 2021", "conditions": "ref Zhang et al., 2021; cited from earlier work"}, "[11]": {"design": "method as in Fan et al., 2009", "conditions": "ten healthy male volunteers, ref Fan et al., 2009, cited from earlier work"}}, "data": [{"smiles": "O=c1cc(-c2ccc(O)c(-c3c(O)cc(O)c4c(=O)cc(-c5ccc(O)cc5)oc34)c2)oc2cc(O)cc(O)c12", "note": "[amentoflavone]", "values": [{"measurement": "inhibition toward most human UGTs", "setting": "[1]", "result": "strong inhibition"}]}, {"smiles": "O=c1c(O)c(-c2ccc(O)cc2)oc2cc(O)cc(O)c12", "note": "[kaempferol]", "values": [{"measurement": "inhibition of breast cancer resistance protein", "setting": "[2]", "result": "inhibitor"}, {"measurement": "inhibition of the P-glycoprotein-mediated efflux of ritonavir", "setting": "[3]", "result": "remarkable inhibition"}]}, {"smiles": "O=c1cc(-c2ccc(O)c(O)c2)oc2cc(O)cc(O)c12", "note": "[luteolin]", "values": [{"measurement": "inhibition of human hepatic UGT1A1", "setting": "[4]", "result": "inhibited"}, {"measurement": "inhibition of human hepatic UGT1A4", "setting": "[5]", "result": "inhibited"}]}, {"smiles": "CC(C)NCC(O)COc1cccc2ccccc12", "note": "(stereo not shown) [propranolol]", "values": [{"measurement": "change of AUC of propranolol", "setting": "[6]", "result": "significantly reduce"}, {"measurement": "change of C max of propranolol", "setting": "[6]", "result": "significantly reduce"}]}, {"smiles": "O=c1c(O)c(-c2ccc(O)c(O)c2)oc2cc(O)cc(O)c12", "note": "[quercetin]", "values": [{"measurement": "inhibition of human hepatic UGT1A1", "setting": "[4]", "result": "inhibited"}, {"measurement": "inhibition of UGT1A1", "setting": "[7]", "result": "moderate inhibitor"}, {"measurement": "inhibition of UGT1A9", "setting": "[8]", "result": "strong inhibitor"}, {"measurement": "inhibition of UGT1A6", "setting": "[9]", "result": "weak inhibitor"}, {"measurement": "inhibition of UGT1A3", "setting": "[10]", "result": "moderate inhibitor"}, {"measurement": "inhibition of human hepatic UGT1A4", "setting": "[5]", "result": "inhibited"}]}, {"smiles": "CC(C)(C)NCC(O)COc1ccc(NC(=O)NC2CCCCC2)cc1", "note": "(stereo not shown) [talinolol]", "values": [{"measurement": "increase of AUC0-24 of talinolol", "setting": "[11]; repeated ingestion of GBE", "result": 26, "unit": "%"}, {"measurement": "increase of C max of talinolol", "setting": "[11]; repeated ingestion of GBE", "result": 36, "unit": "%"}, {"measurement": "effect on pharmacokinetics of talinolol", "setting": "[11]; single dose of GBE orally", "result": "did not affect"}]}]}
